Source: US20040002465A1, “Polyene macrolide derivatives, use for vectoring molecules” (UNIVERSITE PIERRE ET MARIE CURIE, priority 1998, published 2004)
≈ marks a conversion by molar mass, not a printed value.

How the values were obtained:
[1] = system: ATCC 10261 Candida albicans; assay: Antifungal activity, growth inhibition of Candida albicans culture; type: cell-based; settings: concentration inducing 50% inhibition of strain growth; liquid Sabouraud medium, 24 hours at 30° C., spectrophotometry at 660 nm
Method: More particularly, each compound was incubated at different concentrations with a culture of ATCC 10261 Candida albicans (inoculum, […]) in liquid Sabouraud medium for 24 hours at 30° C. Cell growth was then measured by spectrophotometry at a wavelength of 660 nm.

3T3 cells [2] = assay: Internalisation of FITC-labelled antisense oligonucleotide, confocal microspectrofluorimetry; type: cell-based; settings: 4 hours
MCF 7 cells = assay: Internalisation of FITC-labelled anti-gene oligonucleotide; type: cell-based, human; settings: charge ratio 5, compared with AmE, Lipofectine or free oligonucleotides
[3] = system: 27-mer oligonucleotide (ODN) in 10% (v/v) foetal calf serum; assay: Seric degradation of delivered oligonucleotide, gel autoradiography; settings: +/− charge ratio 10, 10% (v/v) foetal calf serum, 37° C., up to 16 hours; versus non delivered ODN
Method: A 27-mer oligonucleotide (ODN) was rendered radioactive by labelling at the 5′ end with ^32P using a standard procedure (Pharmacia) using T4 polynucleotide kinase and ^32(γ)ATP. A small quantity of this ^32P labelled ODN was mixed with cold ODN. AmA was added in a concentration such that the +/− charge ratio was 10 and the complex was allowed to form at ambient temperature for 30 minutes. A sample containing no AmA constituted the control (non delivered ODN). ODN degradation was triggered at time 0 at 37° C. by adding 10% (v/v) foetal calf serum in which the enzymatic activity was essentially 3′-exonucleasic (Sirotkin, Cooley et al., 1978). At intervals, samples were removed for which the action of the enzymes was stopped by adding formamide and placing the tube in ice. The reaction wsa stopped after 4, 6, 8 and 16 hours of incubation with the serum. The samples were then migrated on a denaturing (7 M urea) 20% polyacrylamide gel.

[4] = system: P-gp in NIH-MDR G185 cells (3T3 R); type: cell-based, human
Chain of P-gp in NIH-MDR G185 cells (3T3 R) (P08183 whole entry): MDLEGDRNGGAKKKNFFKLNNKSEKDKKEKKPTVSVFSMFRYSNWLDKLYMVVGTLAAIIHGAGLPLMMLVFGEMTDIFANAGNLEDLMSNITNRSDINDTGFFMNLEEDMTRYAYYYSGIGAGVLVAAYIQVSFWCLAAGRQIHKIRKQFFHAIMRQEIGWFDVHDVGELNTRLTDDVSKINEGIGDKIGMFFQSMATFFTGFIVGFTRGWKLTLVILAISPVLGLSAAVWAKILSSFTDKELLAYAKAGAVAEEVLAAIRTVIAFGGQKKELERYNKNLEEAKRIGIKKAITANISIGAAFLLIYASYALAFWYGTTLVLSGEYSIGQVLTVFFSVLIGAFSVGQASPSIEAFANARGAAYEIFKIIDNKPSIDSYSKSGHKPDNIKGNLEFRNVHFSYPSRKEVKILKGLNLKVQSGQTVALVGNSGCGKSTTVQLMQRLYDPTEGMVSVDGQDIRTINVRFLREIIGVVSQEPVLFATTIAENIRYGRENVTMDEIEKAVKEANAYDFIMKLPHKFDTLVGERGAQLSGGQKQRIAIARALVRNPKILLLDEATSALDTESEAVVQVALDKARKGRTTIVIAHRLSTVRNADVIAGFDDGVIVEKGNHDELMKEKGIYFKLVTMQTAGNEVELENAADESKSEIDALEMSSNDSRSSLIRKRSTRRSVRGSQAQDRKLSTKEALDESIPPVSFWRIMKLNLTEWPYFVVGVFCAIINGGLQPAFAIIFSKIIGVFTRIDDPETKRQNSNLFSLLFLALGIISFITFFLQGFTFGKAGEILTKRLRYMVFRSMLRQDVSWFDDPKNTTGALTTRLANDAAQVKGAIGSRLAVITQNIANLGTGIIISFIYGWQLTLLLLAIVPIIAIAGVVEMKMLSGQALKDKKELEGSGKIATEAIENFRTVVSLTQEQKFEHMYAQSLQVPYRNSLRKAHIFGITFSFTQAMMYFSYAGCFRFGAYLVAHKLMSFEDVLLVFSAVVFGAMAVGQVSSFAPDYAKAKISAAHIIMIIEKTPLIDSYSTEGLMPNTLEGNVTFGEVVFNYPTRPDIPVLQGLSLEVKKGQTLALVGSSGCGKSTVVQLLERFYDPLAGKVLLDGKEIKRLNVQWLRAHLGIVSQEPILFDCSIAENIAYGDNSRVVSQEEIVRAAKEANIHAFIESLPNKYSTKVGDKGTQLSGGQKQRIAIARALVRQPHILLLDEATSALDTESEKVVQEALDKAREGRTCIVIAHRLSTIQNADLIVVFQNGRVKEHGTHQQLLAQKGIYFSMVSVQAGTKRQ

3T3 cells [5] = assay: Toxicity of AmA with or without antisense oligonucleotide, MTT cellular viability; settings: 4 hours at 37° C.

Molecule | IC50 [1] | also measured
N-(4-methyl-1-piperazinepropionyl)AME [PNAME] | 0.16 µg/mL | 
N-(Nα, Nα, Nα,Nε, Nε, Nε,-hexamethyl) AME [MLAME] | 0.15 µg/mL | 
N-ornithyl-AMA [OAMA] | 0.15 µg/mL | 
Amphotericin B 3-dimethylaminopropyl ester [AMPE] | 0.10 µg/mL | 
Amphotericin B N1-sperminylamide [AMSA] | 0.10 µg/mL | 
Amphotericin B-2-(morpholyl)ethylamide [AMMEA] | 0.013 µg/mL | 
N-(4-methyl-1-piperazinepropionyl) AMPA [PAMPA] | 0.17 µg/mL | 
L-aspartate salt of OAMA [OAMA L-aspartate] | 0.17 µg/mL | 
Amphotericin B (N^2-lysyllysine methylester) amide [AMDLA] | 0.12 µg/mL | 
N-(N′-3-dimethylaminopropyl-succinimido) amphotericin B methyl ester [SAME] | 0.125 µg/mL | 
N-(1-piperdinepropionyl) AME [PAME] | 0.15 µg/mL | 
CC1C=CC=CC=CC=CC=CC=CC=CC(OC2OC(C)C(O)C(N)C2O)CC2OC(O)(CC(O)CC(O)C(O)CCC(O)CC(O)CC(=O)OC(C)C(C)C1O)CC(O)C2C(=O)NCCc1ccccn1 (stereo not drawn) [AMPEA, Amphotericin B 2-(2-pyridyl)ethylamide] | 0.015 µg/mL (≈ 0.0146 µM) | 
2-dimethylaminoethyl ester of amphotericin B [AMEE] | 0.08 µg/mL | 
Amphotericin B dimethylaminopropylamide [AMA] |  | intracellular distribution of fluorescence (3T3 cells [2]; nucleus versus cytoplasm): distributed homogeneously inside the cells; internalisation of fluorescent oligonucleotide (fluorescence intensity of cells) (3T3 cells [2]; AmA 1×10^−5 M and 2×10^−5 M, compared with AmE, Lipofectine (20 μg/ml) or the oligonucleotides alone): much greater internalisation; internalisation of fluorescent oligonucleotide (fluorescence intensity of cells) (MCF 7 cells): much greater internalisation; seric degradation of the delivered oligonucleotide [3]: slowed that degradation; synthesis of P-gp, possible vector effect [4]: did not itself inhibit synthesis of P-gp; concentration below which cell growth appears to have been stimulated (3T3 cells [5]; MTT): below 10^−5 M; concentration below which no toxicity was observed (cellular viability, MTT) (3T3 cells [5]; serum-free DMEM, AmA in the presence or absence of oligonucleotide): below 2×10^−5 M
CC1C=CC=CC=CC=CC=CC=CC=CC(OC2OC(C)C(O)C(N)C2O)CC2OC(O)(CC(O)CC(O)C(O)CCC(O)CC(O)CC(=O)OC(C)C(C)C1O)CC(O)C2C(=O)N1CCN(C)CC1 (stereo not drawn) [AMPA, Amphotericin B B-4-methylpiperizyne amide] | 0.015 µg/mL (≈ 0.0149 µM) | 
